# BindingDB's records for doi:10.1021/jm00381a012 (1985)
# Molecular target: T1, Angiotensin-converting enzyme (Oryctolagus cuniculus, UniProt P12822)
# T1 sequence (P12822 whole entry): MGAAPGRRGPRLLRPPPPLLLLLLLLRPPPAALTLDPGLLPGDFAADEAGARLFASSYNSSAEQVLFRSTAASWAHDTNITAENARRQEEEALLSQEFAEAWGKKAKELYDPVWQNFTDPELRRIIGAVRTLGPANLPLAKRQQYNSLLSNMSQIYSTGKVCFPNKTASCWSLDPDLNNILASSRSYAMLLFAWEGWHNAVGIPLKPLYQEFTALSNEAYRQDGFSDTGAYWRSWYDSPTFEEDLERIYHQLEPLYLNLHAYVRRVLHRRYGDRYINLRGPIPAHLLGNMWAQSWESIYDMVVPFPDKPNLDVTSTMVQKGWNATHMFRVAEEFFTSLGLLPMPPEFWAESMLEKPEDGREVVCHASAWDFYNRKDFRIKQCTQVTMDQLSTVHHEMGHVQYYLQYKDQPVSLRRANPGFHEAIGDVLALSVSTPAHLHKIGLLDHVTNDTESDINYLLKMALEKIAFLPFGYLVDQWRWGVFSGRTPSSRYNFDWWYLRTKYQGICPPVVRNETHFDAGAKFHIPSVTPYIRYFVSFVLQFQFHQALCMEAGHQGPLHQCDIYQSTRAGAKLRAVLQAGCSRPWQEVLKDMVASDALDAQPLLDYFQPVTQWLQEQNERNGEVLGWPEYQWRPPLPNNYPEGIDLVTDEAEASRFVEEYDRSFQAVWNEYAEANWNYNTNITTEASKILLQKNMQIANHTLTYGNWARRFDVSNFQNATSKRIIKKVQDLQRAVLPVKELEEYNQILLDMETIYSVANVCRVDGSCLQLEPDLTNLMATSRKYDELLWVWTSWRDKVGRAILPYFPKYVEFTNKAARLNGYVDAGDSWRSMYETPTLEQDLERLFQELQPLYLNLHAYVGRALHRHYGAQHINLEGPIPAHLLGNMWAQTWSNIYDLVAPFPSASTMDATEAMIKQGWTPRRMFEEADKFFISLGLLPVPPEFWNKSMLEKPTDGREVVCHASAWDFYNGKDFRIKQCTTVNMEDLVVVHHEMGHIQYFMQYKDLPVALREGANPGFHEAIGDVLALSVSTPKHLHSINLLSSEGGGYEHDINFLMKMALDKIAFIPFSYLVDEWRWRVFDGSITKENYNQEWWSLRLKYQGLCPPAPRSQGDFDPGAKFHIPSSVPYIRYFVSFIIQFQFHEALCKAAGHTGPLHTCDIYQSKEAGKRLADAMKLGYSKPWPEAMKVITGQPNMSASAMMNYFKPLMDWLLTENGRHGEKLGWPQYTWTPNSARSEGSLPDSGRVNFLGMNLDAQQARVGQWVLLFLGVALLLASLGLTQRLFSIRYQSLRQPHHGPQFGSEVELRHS
# Experiment: ChEBML_34797
row,IC50 [µM],Compound
1,> 100,O=C(O)CN(C(=O)c1ccc(Cl)cc1S)C1CCCC1
2,> 100,CC(C)(C)C(=O)Sc1ccccc1C(=O)N(CC(=O)O)C1CCCC1
3,> 100,CC(=O)Sc1c(C(=O)N(CC(=O)O)C2CCCC2)cccc1C(C)C
